Tests used:
AII receptor = experiment: Angiotensin II receptor binding, displacement of 3H-AII; conditions: read-out: Angiotensin II Receptor Binding IC50; rat adrenal cortical microsomes, 2 nM 3H-AII, 1 hour, room temperature
Description: The reaction mixture contained rat adrenal cortical microsomes (source of AII receptor) in Tris buffer and 2 nM of ^3 H-AII with or without potential AII antagonist. This mixture was incubated for 1 hour at room temperature and the reaction was subsequently terminated by rapid filtration and rinsing through glass microfibre filter. Receptor-bound ^3 H-AII trapped in filter was quantitated by scintillation counting.

renal hypertensive rats = experiment: Antihypertensive effects in renal hypertensive rats; assay type: in vivo, rat; conditions: class symbol
Description: This procedure increases blood pressure by increasing renin production with consequent elevation of AII levels. Compounds are administered orally and/or intravenously via a cannula in the jugular vein. Arterial blood pressure is continuously measured directly through a cartoid artery cannula and recorded using a pressure transducer and a polygraph. Blood pressure levels after treatment are compared to pretreatment levels to determine the antihypertensive effects of the compounds (See Table 4).

AII [1] = conditions: cited from earlier work
AII [2] = conditions: cited from earlier work; remark: listed apart in the source

Row | Compound | IC50 (AII receptor) [µM] | Antihypertensive Effects in Renal Hypertensive Rats, Intravenous Activity (renal hypertensive rats) | further results
1 | CCCCc1nc2cc(CO)ccc2n1Cc1ccc(-c2ccccc2C(=O)O)cc1 [Example 28, 2-Butyl-1-[(2'-carboxybiphenyl-4-yl)methyl]-5-hydroxymethylbenzimidazole] | 0.37 | + (Significant decrease in blood pressure at 10 mg/kg or less.) | –
2 | CCC=Cc1nc2ccc(CO)cc2n1Cc1ccc(-c2ccccc2C(=O)O)cc1 [Example 32, 2-(1-Butenyl)-6-hydroxymethyl-1-[(2'-carboxybiphenyl-4-yl)methyl]benzimidazole] | 0.5 | + (Significant decrease in blood pressure at 10 mg/kg or less.) | Antihypertensive Effects in Renal Hypertensive Rats, Oral Activity (renal hypertensive rats): + (Significant decrease in blood pressure at 100 mg/kg or less.)
3 | CCCCc1nc2ccc(C(=O)O)cc2n1Cc1ccc(-c2ccccc2C(=O)O)cc1 [Example 37] | 5.7 | + (Significant decrease in blood pressure at 10 mg/kg or less.) | –
4 | CCCCc1nc2cc(OC)ccc2n1Cc1ccc(-c2ccccc2C(=O)O)cc1 [Example 30] | 1 | + (Significant decrease in blood pressure at 10 mg/kg or less.) | –
5 | CCCCc1nc2ccc(Cl)cc2n1Cc1ccc(-c2ccccc2C(=O)O)cc1 [Example 33, 2-Butyl-1-[(2'-carboxybiphenyl-4-yl)methyl]-6-chlorobenzimidazole] | 5 | + (Significant decrease in blood pressure at 10 mg/kg or less.) | Antihypertensive Effects in Renal Hypertensive Rats, Oral Activity (renal hypertensive rats): + (Significant decrease in blood pressure at 100 mg/kg or less.)
6 | COCc1nc2cc(CO)ccc2n1Cc1ccc(-c2ccccc2C(=O)O)cc1 [Example 35] | 21 | + (Significant decrease in blood pressure at 10 mg/kg or less.) | –
7 | CNCC(=O)N[C@@H](CCCN=C(N)N)C(=O)N[C@H](C(=O)N[C@@H](Cc1ccc(O)cc1)C(=O)N[C@H](C(=O)N[C@@H](Cc1cnc[nH]1)C(=O)N1CCC[C@H]1C(=O)N[C@@H](C)C(=O)O)C(C)C)C(C)C [Saralasin] | – | – | Antagonism of the actions of AII (AII [1]; in words): one of the most potent competitive antagonists of the actions of AII; Block of the effects of AII on blood pressure (AII [1]; pithed rats): blocks the effects of AII on the blood pressure of pithed rats; Lowering of arterial pressure (AII [2]; elevated pressure dependent on circulating AII): lower arterial pressure in mammals and man when the (elevated) pressure is dependent on circulating AII; Oral effectiveness (AII [2]; oral): oral doses being ineffective; Duration of pharmacological effects (AII [2]; parenteral administration): relatively short-lasting; Pressor effects (agonistic character) (AII [2]; pressure not sustained by AII): generally elicits pressor effects when the pressure is not sustained by AII
8 | CCCCc1nc2ccc(OC)cc2n1Cc1ccc(-c2ccccc2C(=O)O)cc1 [Example 29, 1-[(2'-Carboxybiphenyl-4-yl)methyl]-2-butyl-6-methoxybenzimidazole] | 0.92 | + (Significant decrease in blood pressure at 10 mg/kg or less.) | –
9 | CCCCc1nc2cc(Cl)ccc2n1Cc1ccc(-c2ccccc2C(=O)O)cc1 [Example 38] | 11 | + (Significant decrease in blood pressure at 10 mg/kg or less.) | –
10 | CCCCc1nc2ccc(C=O)cc2n1Cc1ccc(-c2ccccc2C(=O)O)cc1 [Example 31] | 1.4 | + (Significant decrease in blood pressure at 10 mg/kg or less.) | –
11 | COCc1nc2ccc(CO)cc2n1Cc1ccc(-c2ccccc2C(=O)O)cc1 [Example 34] | 6.3 | + (Significant decrease in blood pressure at 10 mg/kg or less.) | –
12 | CCCCc1nc2cc(C(=O)O)ccc2n1Cc1ccc(-c2ccccc2C(=O)O)cc1 [Example 36] | 2.5 | + (Significant decrease in blood pressure at 10 mg/kg or less.) | –
13 | CCCCc1nc2ccc(CO)cc2n1Cc1ccc(-c2ccccc2C(=O)O)cc1 [Example 27, 2-Butyl-1-[(2'-Carboxybiphenyl-4-yl)methyl]-6-hydroxymethylbenzimidazole] | 0.22 | + (Significant decrease in blood pressure at 10 mg/kg or less.) | Antihypertensive Effects in Renal Hypertensive Rats, Oral Activity (renal hypertensive rats): + (Significant decrease in blood pressure at 100 mg/kg or less.)

Second part, led by results:

Row | IC50 (AII receptor) [µM] | Compound | Antihypertensive Effects in Renal Hypertensive Rats, Intravenous Activity (renal hypertensive rats) | further results
14 | 29 | CCOC(=O)C=Cc1nc2ccccc2n1Cc1ccc(NC(=O)c2ccccc2NS(=O)(=O)C(F)(F)F)cc1 [Example 5] | – | –
15 | 2.8 | CCOC(=O)CCc1nc2ccccc2n1Cc1ccc(NC(=O)c2ccccc2NS(=O)(=O)C(F)(F)F)cc1 [Example 6] | – | –
16 | 2.1 | CCOC(=O)CCc1nc2ccccc2n1Cc1ccc(NC(=O)c2ccccc2C(=O)O)cc1 [Example 2, 3-[1-(4-(2-Carboxybenzamido)benzyl)benzimidazole-2-yl]-2-propanoic acid, ethyl ester] | – | –
17 | 8.3 | CCOC(=O)C(Cc1nc2ccccc2n1Cc1ccc(NC(=O)c2ccccc2C(=O)O)cc1)C(=O)OCC [Example 1, 3-[1-(4-(2-Carboxybenzamido)benzyl)benzimidazol-2-yl]-2-(carboethoxy)propanoic acid, ethyl ester] | – | –
18 | 4.4 | CCCC=Cc1nc2ccccc2n1Cc1ccc(NC(=O)c2ccccc2C(=O)O)cc1 [Example 3, 1-[4-(2-Carboxybenzamido)benzyl]-2-(1-pentenyl)benzimidazole] | – | –
19 | 15 | CCOC(=O)C=Cc1nc2ccccc2n1Cc1ccc(NC(=O)c2ccccc2C(=O)O)cc1 [Example 4, 3-[1-(4-(2-Carboxybenzamido)benzyl)benzimidazol-2-yl]propenoic acid, ethyl ester] | – | –

Reference: patent publication US4880804A (E. I. Du Pont De Nemours and Company, priority 1988, dated 1989)
